Laboratory results taken from patent US12043670B2, “Anti-BCMA antibody-drug conjugates and methods of use” (Eisai R&D Management Co., Ltd., priority 2020, dated 2024).

Legend:
Assay type in all cases: cell-based, human
MOLP8 cells = assay: CellTiter-Glo cell viability, MOLP8; conditions: MOLP8 cells, 6 days
AMO-1 cells = assay: 6-day CellTiter-Glo cell viability, AMO-1; conditions: AMO1 cells, 6 days
KMS-11 cells = assay: 6-day CellTiter-Glo cell viability, KMS-11; conditions: KMS11 cells, 6 days
U266B1 cells = assay: 6-day CellTiter-Glo cell viability, U266B1; conditions: U266B1 cells, 6 days
MM1.S cells = assay: CellTiter-Glo cell viability, MM1.S; conditions: MM1S cells, 6 days
RPMI-8226 cells = assay: 6-day CellTiter-Glo cell viability, RPMI-8226; conditions: RPMI8226 cells, 6 days
MM1.R cells = assay: CellTiter-Glo cell viability, MM1.R; conditions: MM1R cells, 6 days
LP-1 cells = assay: 6-day CellTiter-Glo cell viability, LP-1; conditions: LP1 cells, 6 days
NCI-H929 cells = assay: CellTiter-Glo cell viability, NCI-H929 (normal serum); conditions: NCIH929 cells, 6 days
OPM2 cells = assay: CellTiter-Glo cell viability, OPM2 (normal serum); conditions: OPM2 cells, 6 days
EJM cells = assay: 6-day CellTiter-Glo cell viability, EJM; conditions: EJM cells, 6 days

For `CC[C@H](O)[C@@H](C)[C@H]1O[C@@H]1C[C@@](C)(O)/C=C/C=C(\C)[C@H]1OC(=O)C[C@H](O)CC[C@@](C)(O)[C@@H](OC(=O)N2CCN(C3CCCCCC3)CC2)/C=C/[C@@H]1C` [E7107 (D11)], the “AUC (nM * % relative viability)” value (MOLP8 cells) was 361.7797 nM * % relative viability, the LD50 (MOLP8 cells; CellTiter-Glo) was 16.8329 nM and the GI50 (MOLP8 cells; CellTiter-Glo, read-out: GI50) was 2.43 nM. The RminAve (MOLP8 cells; negative = cell death vs T0) was −99.6765%, the “AUC (nM * % relative viability)” value (AMO-1 cells) was 487.7156 nM * % relative viability and the LD50 (AMO-1 cells; CellTiter-Glo) was 50.4287 nM. The GI50 (AMO-1 cells; CellTiter-Glo, read-out: GI50) was 14.9 nM, the RminAve (AMO-1 cells; negative = cell death vs T0) was −96.8372% and the “AUC (nM * % relative viability)” value (KMS-11 cells) was 382.1527 nM * % relative viability. For the same compound, the LD50 (KMS-11 cells; CellTiter-Glo) was 13.1801 nM, the GI50 (KMS-11 cells; CellTiter-Glo, read-out: GI50) was 5.03 nM and the RminAve (KMS-11 cells; negative = cell death vs T0) was −99.2702%. For the same compound, the “AUC (nM * % relative viability)” value (U266B1 cells) was 422.0108 nM * % relative viability, the LD50 (U266B1 cells; CellTiter-Glo) was 18.2733 nM and the GI50 (U266B1 cells; CellTiter-Glo, read-out: GI50) was 8.76 nM. For the same compound, the RminAve (U266B1 cells; negative = cell death vs T0) was −95.1886%, the “AUC (nM * % relative viability)” value (MM1.S cells) was 380.5913 nM * % relative viability and the LD50 (MM1.S cells; CellTiter-Glo) was 18.155 nM. For the same compound, the GI50 (MM1.S cells; CellTiter-Glo, read-out: GI50) was 3.51 nM, the RminAve (MM1.S cells; negative = cell death vs T0) was −99.7761% and the “AUC (nM * % relative viability)” value (RPMI-8226 cells) was 359.1272 nM * % relative viability. The LD50 (RPMI-8226 cells; CellTiter-Glo) was 10.8782 nM, the GI50 (RPMI-8226 cells; CellTiter-Glo, read-out: GI50) was 3.59 nM and the RminAve (RPMI-8226 cells; negative = cell death vs T0) was −99.7762%. For the same compound, the “AUC (nM * % relative viability)” value (MM1.R cells) was 374.4113 nM * % relative viability, the LD50 (MM1.R cells; CellTiter-Glo) was 16.5876 nM and the GI50 (MM1.R cells; CellTiter-Glo, read-out: GI50) was 3.33 nM. The RminAve (MM1.R cells; negative = cell death vs T0) was −99.831%, the “AUC (nM * % relative viability)” value (LP-1 cells) was 313.7701 nM * % relative viability and the LD50 (LP-1 cells; CellTiter-Glo) was 6.2485 nM. The GI50 (LP-1 cells; CellTiter-Glo, read-out: GI50) was 2.2 nM, the RminAve (LP-1 cells; negative = cell death vs T0) was −99.6676% and the “AUC (nM * % relative viability)” value (NCI-H929 cells) was 321.415 nM * % relative viability. The LD50 (NCI-H929 cells; CellTiter-Glo) was 5.836 nM, the GI50 (NCI-H929 cells; CellTiter-Glo, read-out: GI50) was 2.81 nM and the RminAve (NCI-H929 cells; negative = cell death vs T0) was −99.8426%. The “AUC (nM * % relative viability)” value (OPM2 cells) was 289.9829 nM * % relative viability, the LD50 (OPM2 cells; CellTiter-Glo) was 4.7541 nM and the GI50 (OPM2 cells; CellTiter-Glo, read-out: GI50) was 1.67 nM. For the same compound, the RminAve (OPM2 cells; negative = cell death vs T0) was −99.6884%, the “AUC (nM * % relative viability)” value (EJM cells) was 434.2294 nM * % relative viability and the LD50 (EJM cells; CellTiter-Glo) was 22.175 nM. For the same compound, the GI50 (EJM cells; CellTiter-Glo, read-out: GI50) was 9.45 nM and the RminAve (EJM cells; negative = cell death vs T0) was −99.071%.
